# Test results as given in PubChem BioAssay AID1259407 (Chemical Carcinogenesis Research Information System (CCRIS), 2018).
# Calls of active or inactive are those of the source. The rule behind the calls is not given here.
# System: CCRIS mutagenicity, Ames/micronucleus/aberration tests
# Test: CCRIS mutagenicity studies
# [1] = Test System: AMES SALMONELLA TYPHIMURIUM, Strain/Indicator: TA98, Metabolic Activation: NONE, Method: STANDARD PLATE
# [2] = Test System: AMES SALMONELLA TYPHIMURIUM, Strain/Indicator: TA100, Metabolic Activation: NONE, Method: STANDARD PLATE
# [3] = Test System: AMES SALMONELLA TYPHIMURIUM, Strain/Indicator: TA98, Metabolic Activation: NONE, Method: PREINCUBATION
# [4] = Test System: AMES SALMONELLA TYPHIMURIUM, Strain/Indicator: TA100, Metabolic Activation: NONE, Method: PREINCUBATION
# [5] = Test System: AMES SALMONELLA TYPHIMURIUM, Strain/Indicator: TA1535, Metabolic Activation: NONE, Method: PREINCUBATION
structure (smiles),measurement,setting,value
O=[N+]([O-])c1cc2c3c(c1)CCc1cc([N+](=O)[O-])cc(c1-3)CC2,mutagenic call,"Test System: AMES SALMONELLA TYPHIMURIUM, Strain/Indicator: TA98(1,8-DNP6), Metabolic Activation: NONE, Method: STANDARD PLATE",active; positive
same,mutagenic call,"Test System: AMES SALMONELLA TYPHIMURIUM, Strain/Indicator: TA98(NR), Metabolic Activation: NONE, Method: STANDARD PLATE",active; positive
same,mutagenic call,[1],active; positive
O=S(=O)(Nc1cccc(Cl)c1)c1cccc2cccnc12,mutagenic call,[1],inactive; negative
same,mutagenic call,"Test System: AMES SALMONELLA TYPHIMURIUM, Strain/Indicator: TA98, Metabolic Activation: RAT, LIVER, S-9, AROCLOR 1254, Method: STANDARD PLATE",inactive; negative
same,mutagenic call,[2],inactive; negative
same,mutagenic call,"Test System: AMES SALMONELLA TYPHIMURIUM, Strain/Indicator: TA100, Metabolic Activation: RAT, LIVER, S-9, AROCLOR 1254, Method: STANDARD PLATE",inactive; negative
same,mutagenic call,"Test System: AMES SALMONELLA TYPHIMURIUM, Strain/Indicator: TA1535, Metabolic Activation: NONE, Method: STANDARD PLATE",inactive; negative
same,mutagenic call,"Test System: AMES SALMONELLA TYPHIMURIUM, Strain/Indicator: TA1535, Metabolic Activation: RAT, LIVER, S-9, AROCLOR 1254, Method: STANDARD PLATE",inactive; negative
same,mutagenic call,"Test System: AMES SALMONELLA TYPHIMURIUM, Strain/Indicator: TA1537, Metabolic Activation: NONE, Method: STANDARD PLATE",inactive; negative
same,mutagenic call,"Test System: AMES SALMONELLA TYPHIMURIUM, Strain/Indicator: TA1537, Metabolic Activation: RAT, LIVER, S-9, AROCLOR 1254, Method: STANDARD PLATE",inactive; negative
Cc1nc(N)nc(N)n1,mutagenic call,[3],inactive; negative
same,mutagenic call,"Test System: AMES SALMONELLA TYPHIMURIUM, Strain/Indicator: TA98, Metabolic Activation: RAT LIVER S-9, PHENOBARBITAL AND BETA-NAPHTHOFLAVONE, Method: PREINCUBATION",inactive; negative
same,mutagenic call,[4],inactive; negative
same,mutagenic call,"Test System: AMES SALMONELLA TYPHIMURIUM, Strain/Indicator: TA100, Metabolic Activation: RAT LIVER S-9, PHENOBARBITAL AND BETA-NAPHTHOFLAVONE, Method: PREINCUBATION",inactive; negative
same,mutagenic call,[5],inactive; negative
same,mutagenic call,"Test System: AMES SALMONELLA TYPHIMURIUM, Strain/Indicator: TA1535, Metabolic Activation: RAT LIVER S-9, PHENOBARBITAL AND BETA-NAPHTHOFLAVONE, Method: PREINCUBATION",inactive; negative
same,mutagenic call,"Test System: AMES SALMONELLA TYPHIMURIUM, Strain/Indicator: TA1537, Metabolic Activation: NONE, Method: PREINCUBATION",inactive; negative
same,mutagenic call,"Test System: AMES SALMONELLA TYPHIMURIUM, Strain/Indicator: TA1537, Metabolic Activation: RAT LIVER S-9, PHENOBARBITAL AND BETA-NAPHTHOFLAVONE, Method: PREINCUBATION",inactive; negative
same,mutagenic call,"Test System: AMES SALMONELLA TYPHIMURIUM, Strain/Indicator: TA1538, Metabolic Activation: NONE, Method: PREINCUBATION",inactive; negative
same,mutagenic call,"Test System: AMES SALMONELLA TYPHIMURIUM, Strain/Indicator: TA1538, Metabolic Activation: RAT LIVER S-9, PHENOBARBITAL AND BETA-NAPHTHOFLAVONE, Method: PREINCUBATION",inactive; negative
same,mutagenic call,"Test System: E.COLI, Strain/Indicator: WP2UVRA, Metabolic Activation: NONE, Method: PREINCUBATION",inactive; negative
same,mutagenic call,"Test System: E.COLI, Strain/Indicator: WP2UVRA, Metabolic Activation: RAT LIVER S-9, PHENOBARBITAL AND BETA-NAPHTHOFLAVONE, Method: PREINCUBATION",inactive; negative
CC(=O)OCc1c2ccccc2c(C)c2ccccc12,mutagenic call,[1],active; positive
same,mutagenic call,[2],active; positive
CCCCC(C=O)CC (stereo not drawn),mutagenic call,"Test System: AMES SALMONELLA TYPHIMURIUM, Strain/Indicator: TA97, Metabolic Activation: HAMSTER, LIVER, S-9, AROCLOR 1254 (10%), Method: PREINCUBATION",inactive; negative
same,mutagenic call,"Test System: AMES SALMONELLA TYPHIMURIUM, Strain/Indicator: TA97, Metabolic Activation: HAMSTER, LIVER, S-9, AROCLOR 1254 (30%), Method: PREINCUBATION",inactive; negative
same,mutagenic call,"Test System: AMES SALMONELLA TYPHIMURIUM, Strain/Indicator: TA97, Metabolic Activation: NONE, Method: PREINCUBATION",inactive; negative
same,mutagenic call,"Test System: AMES SALMONELLA TYPHIMURIUM, Strain/Indicator: TA97, Metabolic Activation: RAT, LIVER, S-9, AROCLOR 1254 (10%), Method: PREINCUBATION",inactive; negative
same,mutagenic call,"Test System: AMES SALMONELLA TYPHIMURIUM, Strain/Indicator: TA97, Metabolic Activation: RAT, LIVER, S-9, AROCLOR 1254 (30%), Method: PREINCUBATION",inactive; negative
same,mutagenic call,"Test System: AMES SALMONELLA TYPHIMURIUM, Strain/Indicator: TA98, Metabolic Activation: HAMSTER, LIVER, S-9, AROCLOR 1254 (10%), Method: PREINCUBATION",inactive; negative
same,mutagenic call,"Test System: AMES SALMONELLA TYPHIMURIUM, Strain/Indicator: TA98, Metabolic Activation: HAMSTER, LIVER, S-9, AROCLOR 1254 (30%), Method: PREINCUBATION",inactive; negative
same,mutagenic call,[3],inactive; negative
same,mutagenic call,"Test System: AMES SALMONELLA TYPHIMURIUM, Strain/Indicator: TA98, Metabolic Activation: RAT, LIVER, S-9, AROCLOR 1254 (10%), Method: PREINCUBATION",inactive; negative
same,mutagenic call,"Test System: AMES SALMONELLA TYPHIMURIUM, Strain/Indicator: TA98, Metabolic Activation: RAT, LIVER, S-9, AROCLOR 1254 (30%), Method: PREINCUBATION",inactive; negative
same,mutagenic call,"Test System: AMES SALMONELLA TYPHIMURIUM, Strain/Indicator: TA100, Metabolic Activation: HAMSTER, LIVER, S-9, AROCLOR 1254 (10%), Method: PREINCUBATION",inactive; negative
same,mutagenic call,"Test System: AMES SALMONELLA TYPHIMURIUM, Strain/Indicator: TA100, Metabolic Activation: HAMSTER, LIVER, S-9, AROCLOR 1254 (30%), Method: PREINCUBATION",inactive; negative
same,mutagenic call,[4],inactive; negative
same,mutagenic call,"Test System: AMES SALMONELLA TYPHIMURIUM, Strain/Indicator: TA100, Metabolic Activation: RAT, LIVER, S-9, AROCLOR 1254 (10%), Method: PREINCUBATION",inactive; negative
same,mutagenic call,"Test System: AMES SALMONELLA TYPHIMURIUM, Strain/Indicator: TA100, Metabolic Activation: RAT, LIVER, S-9, AROCLOR 1254 (30%), Method: PREINCUBATION",inactive; negative
same,mutagenic call,"Test System: AMES SALMONELLA TYPHIMURIUM, Strain/Indicator: TA1535, Metabolic Activation: HAMSTER, LIVER, S-9, AROCLOR 1254 (10%), Method: PREINCUBATION",inactive; negative
same,mutagenic call,"Test System: AMES SALMONELLA TYPHIMURIUM, Strain/Indicator: TA1535, Metabolic Activation: HAMSTER, LIVER, S-9, AROCLOR 1254 (30%), Method: PREINCUBATION",inactive; negative
same,mutagenic call,[5],inactive; negative
same,mutagenic call,"Test System: AMES SALMONELLA TYPHIMURIUM, Strain/Indicator: TA1535, Metabolic Activation: RAT, LIVER, S-9, AROCLOR 1254 (10%), Method: PREINCUBATION",inactive; negative
same,mutagenic call,"Test System: AMES SALMONELLA TYPHIMURIUM, Strain/Indicator: TA1535, Metabolic Activation: RAT, LIVER, S-9, AROCLOR 1254 (30%), Method: PREINCUBATION",inactive; negative
COc1ccc(C(=O)ON(OCc2ccccc2)C(=O)c2ccccc2)cc1,mutagenic call,[2],active; positive
same,mutagenic call,"Test System: AMES SALMONELLA TYPHIMURIUM, Strain/Indicator: TA100, Metabolic Activation: RAT, S-9, AROCLOR, Method: STANDARD PLATE",active; positive
O=S(=O)(O)c1ccc(-c2nnc(-c3ccccn3)nc2-c2ccc(S(=O)(=O)O)cc2)cc1,mutagenic call,"Test System: Mouse lymphoma, Strain/Indicator: L5178Y (tk+/tk-), Metabolic Activation: None, Method: Suspension/plate",inactive; negative
same,mutagenic call,"Test System: Mouse lymphoma, Strain/Indicator: L5178Y (tk+/tk-), Metabolic Activation: Rat, Liver, S-9, Aroclor 1254, Method: Suspension/plate",inactive; negative
[CH3][Sn]([CH3])([CH3])[Cl],mutagenic call,"Test System: AMES SALMONELLA TYPHIMURIUM, Strain/Indicator: TA98, Metabolic Activation: NONE, Method: SUSPENSION/PLATE",inactive; negative
same,mutagenic call,"Test System: AMES SALMONELLA TYPHIMURIUM, Strain/Indicator: TA100, Metabolic Activation: NONE, Method: SUSPENSION/PLATE",inactive; negative
c1ccc2c(c1)[nH]c1cnccc12,mutagenic call,"Test System: AMES SALMONELLA TYPHIMURIUM, Strain/Indicator: TA98, Metabolic Activation: RAT, LIVER, S-9, AROCLOR 1254, Method: PREINCUBATION",inactive; negative
CCCCCCCCCC(=O)N=c1sn(C(=O)CCCCCCCCC)c2ccc([N+](=O)[O-])cc12,mutagenic call,"Test System: AMES SALMONELLA TYPHIMURIUM, Strain/Indicator: TA100, Metabolic Activation: S-9, Method: STANDARD PLATE",active; positive
